# Measured values taken from patent US10696692B2, “Amido-benzyl sulfone and sulfoxide derivates” (Forma TM, LLC, priority 2012, dated 2020).
# Key:
# A2780 cells = assay: Assay 2: In-Vitro Cell Proliferation Assay (A2780 cells, SRB readout, 72 hours); type: cell-based; settings: Homo sapiens, A2780, 72 h, A2780 cells, 72 hours, SRB; read-out: Cell Proliferation (IC50);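 further: viable cells counted via sulforhodamine B staining, absorbance at 570 nm, after 72 h exposure at 37 °C, DMSO 0.1% as control, media-only background subtracted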
# NAMPT = NAMPT (Homo sapiens (Human), UniProt P43490); assay: Assay 1: Biochemical Inhibition Assay (NAMPT enzymatic reaction, NMN quantified by mass spectrometry); settings: read-out: Biochemical (IC50);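 further: recombinant His-tagged human NAMPT preincubated with compound 15 min, then reacted 30 min at rt with 1 µM NAM, 100 µM PRPP, 2.5 mM ATP, NMN product read by RapidFire MS, normalized to L-Cystathionine internal standard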
# NAMPT, sequence (P43490 whole entry): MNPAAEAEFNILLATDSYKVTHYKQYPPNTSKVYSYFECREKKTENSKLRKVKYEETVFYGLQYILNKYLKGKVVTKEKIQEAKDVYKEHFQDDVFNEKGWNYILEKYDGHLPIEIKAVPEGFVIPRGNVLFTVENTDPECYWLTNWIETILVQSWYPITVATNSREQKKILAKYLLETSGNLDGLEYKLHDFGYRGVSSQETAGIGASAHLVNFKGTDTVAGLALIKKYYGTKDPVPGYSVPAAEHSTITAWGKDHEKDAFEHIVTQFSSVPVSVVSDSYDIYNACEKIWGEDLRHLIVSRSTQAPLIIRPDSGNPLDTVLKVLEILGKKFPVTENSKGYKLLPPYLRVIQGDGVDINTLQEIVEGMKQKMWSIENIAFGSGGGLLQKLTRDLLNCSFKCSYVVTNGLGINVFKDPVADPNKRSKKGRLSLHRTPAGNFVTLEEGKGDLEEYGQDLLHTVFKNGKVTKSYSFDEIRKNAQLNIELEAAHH
Compound,IC50 (A2780 cells) [nM],IC50 (NAMPT) [nM]
"O=C(NCc1ccc(S(=O)(=O)C2CCN(C(=O)c3ccccc3)CC2)cc1)c1cnc2[nH]ncc2c1 [Example 344, N-[[4-[(1-benzoyl-4-piperidyl)sulfonyl]phenyl]methyl]-1H-pyrazolo[3,4-b]pyridine-5-carboxamide]",451,302
"O=C(NCc1ccc(S(=O)(=O)C2CCCN(S(=O)(=O)c3ccccc3)C2)cc1)c1cnc2[nH]ncc2c1 (centres unmarked) [Example 345, N-[[4-[[1-(benzenesulfonyl)-3-piperidyl]sulfonyl]phenyl]methyl]-1H-pyrazolo[3,4-b]pyridine-5-carboxamide]",307,118
"O=C(NCc1ccc(S(=O)(=O)C2CCN(S(=O)(=O)c3ccccc3)C2)cc1)c1cnc2[nH]ncc2c1 (centres unmarked) [Example 346, N-[[4-[1-(benzenesulfonyl)pyrrolidin-3-yl]sulfonylphenyl]methyl]-1H-pyrazolo[3,4-b]pyridine-5-carboxamide]",198,102
"CC(=O)N1CCCC(S(=O)(=O)c2ccc(CNC(=O)c3cnc4[nH]ncc4c3)cc2)C1 (centres unmarked) [Example 347, N-[[4-[(1-acetyl-3-piperidyl)sulfonyl]phenyl]methyl]-1H-pyrazolo[3,4-b]pyridine-5-carboxamide]",640,381
"CC(=O)N1CCC(S(=O)(=O)c2ccc(CNC(=O)c3cnc4[nH]ncc4c3)cc2)C1 (centres unmarked) [Example 348, N-[[4-(1-acetylpyrrolidin-3-yl)sulfonylphenyl]methyl]-1H-pyrazolo[3,4-b]pyridine-5-carboxamide]",2000,2000
"O=C(NCc1ccc(S(=O)(=O)C2CCCN(C(=O)c3ccccc3)C2)cc1)c1cnc2[nH]ncc2c1 (centres unmarked) [Example 350, N-[[4-[(1-benzoyl-3-piperidyl)sulfonyl]phenyl]methyl]-1H-pyrazolo[3,4-b]pyridine-5-carboxamide]",258,300
"CS(=O)(=O)N1CCCC(S(=O)(=O)c2ccc(CNC(=O)c3cnc4[nH]ncc4c3)cc2)C1 (centres unmarked) [Example 353, N-[[4-[(1-methylsulfonyl-3-piperidyl)sulfonyl)phenyl]methyl]-1H-pyrazolo[3,4-b]pyridine-5-carboxamide]",2000,3970
"CS(=O)(=O)N1CCC(S(=O)(=O)c2ccc(CNC(=O)c3cnc4[nH]ncc4c3)cc2)C1 (centres unmarked) [Example 354, N-[[4-(1-methylsulfonylpyrrolidin-3-yl)sulfonylphenyl]methyl]-1H-pyrazolo[3,4-b]pyridine-5-carboxamide]",726,413

# The next compounds have a lower IC50 (A2780 cells) than those just listed; values first:
IC50 (A2780 cells) [nM],IC50 (NAMPT) [nM],Compound
23,20.3,"CCCN1CCC(S(=O)(=O)c2ccc(CNC(=O)c3cc4ccncc4o3)cc2)CC1 [Example 342, N-[[4-[(1-propyl-4-piperidyl)sulfonyl]phenyl]methyl]furo[2,3-c]pyridine-2-carboxamide]"
52.2,73.5,"CS(=O)(=O)N1CCC(S(=O)(=O)c2ccc(CNC(=O)c3cnc4[nH]ncc4c3)cc2)CC1 [Example 349, N-[[4-[(1-methylsulfonyl-4-piperidyl)sulfonyl]phenyl]methyl]-1H-pyrazolo[3,4-b]pyridine-5-carboxamide]"
107,71.1,"O=C(NCc1ccc(S(=O)(=O)C2CCN(C(=O)c3ccccc3)C2)cc1)c1cnc2[nH]ncc2c1 (centres unmarked) [Example 351, N-[[4-(1-benzoylpyrrolidin-3-yl)sulfonylphenyl]methyl]-1H-pyrazolo[3,4-b]pyridine-5-carboxamide]"
20.3,18,"O=C(NCc1ccc(S(=O)(=O)C2CCN(S(=O)(=O)c3ccccc3)CC2)cc1)c1cnc2[nH]ncc2c1 [Example 352, N-[[4-[[1-(benzenesulfonyl)-4-piperidyl]sulfonyl]phenyl]methyl]-1H-pyrazolo[3,4-b]pyridine-5-carboxamide]"
3.25,13.5,"O=C(NCc1ccc([S+]([O-])C2CCN(CC(F)(F)F)CC2)cc1)c1cc2ccncc2o1 (centres unmarked) [Example 356, N-[[4-[[1-(2,2,2-trifluoroethyl)-4-piperidyl]sulfinyl]phenyl]methyl]furo[2,3-c]pyridine-2-carboxamide]"
